# Values joined by “and” are separate entries in the source; they are usually repeats but may differ in a detail not shown here. Identical values can stand only once. Like-named read-outs stand apart in the source and are kept apart here.
# Columns and labels:
# Human full-length ERβ = molecular target: T1, Human full-length ERβ (Homo sapiens, UniProt Q92731); assay: ERβ cell-based luciferase reporter assay, agonist mode
# T1 construct: expression vector encoding human full-length ERα or ERβ; expressed in transfected cells; host or cells: HEK293, transiently transfected
# T1 sequence (Q92731 whole entry): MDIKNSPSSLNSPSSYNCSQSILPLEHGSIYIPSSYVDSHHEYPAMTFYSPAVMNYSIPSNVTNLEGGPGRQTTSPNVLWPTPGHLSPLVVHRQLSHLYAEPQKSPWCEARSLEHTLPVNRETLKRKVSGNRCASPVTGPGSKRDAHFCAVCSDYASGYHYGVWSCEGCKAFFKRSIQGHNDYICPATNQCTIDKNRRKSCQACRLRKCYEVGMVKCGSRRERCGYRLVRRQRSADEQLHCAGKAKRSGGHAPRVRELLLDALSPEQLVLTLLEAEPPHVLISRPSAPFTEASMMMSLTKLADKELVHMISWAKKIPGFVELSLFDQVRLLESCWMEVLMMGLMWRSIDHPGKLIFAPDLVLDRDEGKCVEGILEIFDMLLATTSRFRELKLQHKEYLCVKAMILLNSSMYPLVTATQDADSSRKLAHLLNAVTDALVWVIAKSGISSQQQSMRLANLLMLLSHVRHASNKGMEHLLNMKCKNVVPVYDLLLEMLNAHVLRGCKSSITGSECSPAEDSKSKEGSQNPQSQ
# Protocol: (§1) The selectivity and potency of the various compounds was carried out via in vitro testing in ERα and ERβ cell-based reporter assays. The activity of the selected compounds was determined in the cell-based reporter assays in HEK293 cells.
# (§2) The HEK293 cells were propagated in a monolayer in phenol red-free DMEM supplemented with 10% fetal bovine serum, 2 mM Glutamax and penicillin/streptomycin (Thermo Fisher Scientific, MA, USA) and incubated in a 5% CO2 humidified atmosphere at 37° C. Right before transfection, the growth medium was changed to phenol red-free DMEM supplemented with 4% HyClone Fetal Bovine Serum, Charcoal/Dextran Treated (GE Healthcare Life Sciences, USA) and 2 mM Glutamax (starvation medium). The cells were transfected with the expression vector encoding human full-length ERα or ERβ and with the reporter vector containing 3 repeats of estrogen responsive elements (ERE) followed by the minimal thymidine kinase promoter from the herpes simplex virus in the pGL4 vector (Promega, USA). Luciferase served as a reporter gene. The transfection was carried out in 10 cm dishes (Nunc) in the starvation medium. After 24 hours, the cells were trypsinized, counted and seeded to cell culture treated, white, solid 1536-well plates (Corning Inc., NY, USA) at 1500 cells/well in 4 μl of total media volume. The compounds to be tested were diluted in DMSO and transferred to the cells using an acoustic dispenser Echo 520 (Labcyte). The compounds were tested at least at 12 different concentration points in the range from […] to 100 μM, in triplicates. Luciferase activity was determined after 24 hours of incubation with compounds with Britelite plus luciferase reporter gene assay reagent (Perkin Elmer, USA), according to the manufacturer protocol. The luciferase signal was measured on an Envison multimode plate reader (Perkin Elmer, USA). Data were collected and processed using an in-house built LIMS system ScreenX and GraphPad Prism software. EC50 values were calculated using a regression function (dose response, variable slope).
# (§3) The selectivity and potency of various example compounds in the second library was carried out via in vitro testing in ERα and ERβ cell-based reporter assays.
# HEK293 cells = assay: HEK293 viability assay (ATPlite 1step); assay type: cell-based, human; details: non-transfected HEK293, 24 h, ATP level; Trial 2; Low = activity too low for exact value
# Protocol: The non-transfected HEK293 cells were seeded to the 384-well plates at 5000 cell/well, compounds were added and the timing of all subsequent steps was exactly the same as in the reporter assays. […] After 24 h of compound incubation with cells, the viability of cells was measured by determining the ATP level in the samples using luciferase cell viability assay, ATPlite 1step (Perkin Elmer, USA).
# Human full-length GR = molecular target: T2, Human full-length GR (Homo sapiens, UniProt P04150); assay: GR cell-based luciferase reporter assay, agonist and antagonist mode; details: U2OS stable reporter cells; antagonist mode with 10 nM dexamethasone; concentration range tested 100 μM to 100 μM (so in the source)
# T2 sequence (P04150 1-777): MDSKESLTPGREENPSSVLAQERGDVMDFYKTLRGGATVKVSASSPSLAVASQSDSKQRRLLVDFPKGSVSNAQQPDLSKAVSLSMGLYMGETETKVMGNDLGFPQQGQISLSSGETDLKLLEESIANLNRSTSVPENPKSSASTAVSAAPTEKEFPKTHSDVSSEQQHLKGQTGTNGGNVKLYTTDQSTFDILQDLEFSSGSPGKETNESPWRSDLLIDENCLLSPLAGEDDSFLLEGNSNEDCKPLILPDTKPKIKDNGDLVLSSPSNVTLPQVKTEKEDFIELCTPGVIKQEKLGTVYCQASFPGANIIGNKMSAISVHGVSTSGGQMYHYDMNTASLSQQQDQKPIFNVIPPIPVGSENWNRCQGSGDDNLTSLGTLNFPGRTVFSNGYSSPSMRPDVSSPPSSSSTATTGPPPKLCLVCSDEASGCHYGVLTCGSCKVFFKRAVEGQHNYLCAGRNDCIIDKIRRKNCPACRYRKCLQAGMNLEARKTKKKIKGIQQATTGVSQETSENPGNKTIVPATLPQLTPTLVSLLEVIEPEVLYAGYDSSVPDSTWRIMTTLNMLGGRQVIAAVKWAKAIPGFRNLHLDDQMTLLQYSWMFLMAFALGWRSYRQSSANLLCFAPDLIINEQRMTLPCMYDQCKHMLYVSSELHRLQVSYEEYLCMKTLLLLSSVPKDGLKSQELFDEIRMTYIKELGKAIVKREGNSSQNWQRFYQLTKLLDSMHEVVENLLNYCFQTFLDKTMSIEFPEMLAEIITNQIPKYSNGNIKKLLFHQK
# Human full-length ERα = molecular target: T3, Human full-length ERα (Homo sapiens, UniProt P03372); assay: ERα cell-based luciferase reporter assay, agonist mode; details: for EC50: Table 8, second library, read-out: ERα agonism EC50
# T3 construct: expression vector encoding human full-length ERα or ERβ; expressed in transfected cells; host or cells: HEK293, transiently transfected
# T3 sequence (P03372 1-595): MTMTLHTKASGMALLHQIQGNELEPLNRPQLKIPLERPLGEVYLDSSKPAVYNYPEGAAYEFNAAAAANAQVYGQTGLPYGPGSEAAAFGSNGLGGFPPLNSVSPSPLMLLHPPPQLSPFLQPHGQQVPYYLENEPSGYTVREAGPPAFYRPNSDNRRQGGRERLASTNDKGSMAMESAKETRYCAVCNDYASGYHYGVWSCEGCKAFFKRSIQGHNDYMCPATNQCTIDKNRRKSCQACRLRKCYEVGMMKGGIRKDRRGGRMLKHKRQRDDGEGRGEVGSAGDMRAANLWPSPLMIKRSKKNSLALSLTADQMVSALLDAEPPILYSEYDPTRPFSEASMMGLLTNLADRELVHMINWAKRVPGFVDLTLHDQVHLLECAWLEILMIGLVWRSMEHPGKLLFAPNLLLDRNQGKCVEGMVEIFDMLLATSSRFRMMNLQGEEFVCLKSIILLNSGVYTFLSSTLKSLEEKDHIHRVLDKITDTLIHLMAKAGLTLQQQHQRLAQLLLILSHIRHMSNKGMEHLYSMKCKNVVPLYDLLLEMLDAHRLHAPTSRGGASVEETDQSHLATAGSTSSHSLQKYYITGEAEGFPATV
# Protocol: as §1, §2, §3
# Human full-length AR = molecular target: T4, Human full-length AR (Homo sapiens, UniProt P10275); assay: AR cell-based luciferase reporter assay, agonist and antagonist mode; details: U2OS stable reporter cells; antagonist mode with 2 nM DHT; concentration range tested 100 μM to 100 μM (so in the source)
# T4 sequence (P10275 1-920): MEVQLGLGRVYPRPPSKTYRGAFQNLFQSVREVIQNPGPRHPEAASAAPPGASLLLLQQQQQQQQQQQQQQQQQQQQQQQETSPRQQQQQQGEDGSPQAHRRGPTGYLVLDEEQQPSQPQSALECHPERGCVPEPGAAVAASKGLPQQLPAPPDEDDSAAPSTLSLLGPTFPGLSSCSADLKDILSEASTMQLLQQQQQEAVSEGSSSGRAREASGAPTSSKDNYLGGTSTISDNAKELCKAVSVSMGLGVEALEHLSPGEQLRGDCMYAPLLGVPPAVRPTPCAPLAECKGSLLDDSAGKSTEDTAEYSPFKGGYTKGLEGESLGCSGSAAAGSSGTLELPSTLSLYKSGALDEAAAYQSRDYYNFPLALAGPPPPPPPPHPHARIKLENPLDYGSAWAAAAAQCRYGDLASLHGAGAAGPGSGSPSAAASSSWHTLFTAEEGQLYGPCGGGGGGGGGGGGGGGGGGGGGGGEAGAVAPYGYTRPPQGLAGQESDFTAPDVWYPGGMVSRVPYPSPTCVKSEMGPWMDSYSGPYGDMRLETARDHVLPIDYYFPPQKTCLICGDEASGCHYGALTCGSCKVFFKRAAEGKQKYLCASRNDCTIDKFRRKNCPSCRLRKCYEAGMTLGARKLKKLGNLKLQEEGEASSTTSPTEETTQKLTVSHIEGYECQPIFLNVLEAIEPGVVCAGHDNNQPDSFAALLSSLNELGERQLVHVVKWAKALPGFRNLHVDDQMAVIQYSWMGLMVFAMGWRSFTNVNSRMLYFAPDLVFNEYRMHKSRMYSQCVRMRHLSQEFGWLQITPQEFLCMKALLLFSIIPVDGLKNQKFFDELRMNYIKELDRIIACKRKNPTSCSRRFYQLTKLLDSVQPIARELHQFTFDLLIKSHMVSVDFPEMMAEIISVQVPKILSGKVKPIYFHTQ
# [1] = HEK293, 24 hours, Trial 2 (believed more reliable), low = activity detected but too low for exact value
# [2] = Table 8, second library, read-out: ERβ agonism EC50
EC50 (Human full-length ERα),EC50 (Human full-length ERβ; [2]),Compound,agonistic or antagonistic activities on GR (Human full-length GR),also measured
,,"1-(4-hydoxyphenyl)-12-(1-hydroxyheptyl)-1,12-dicarba-closo-dodecaborane [Compound 06]",no agonistic or antagonistic activities,"ERβ Efficacy (Human full-length ERβ; HEK293, 24 hours, Trial 2): 100 and 103; ERβ Log(EC50) (Human full-length ERβ; [1]): −7.71 and −7.76; EC50 (Human full-length ERβ; HEK293, 24 hours, Trial 2 (believed more reliable), low = activity detected but too low for exact value, read-out: ERβ EC50): 0.019 µM and 0.017 µM; EC50 (Human full-length ERβ; text of Example 19, luciferase reporter-based cell assay in HEK cells, read-out: EC50 at ERβ): 0.005 µM; IC50 (HEK293 cells): 18 µM and 17 µM"
> 10 µM,> 10 µM,CCCCCC[C@H](O)c1ccc(-c2ccc(O)cc2)cc1 [Compound 26],,
> 10 µM,> 10 µM,CCCCCC[C@H](O)C1CCC(c2ccc(O)cc2)CC1 (stereo partly drawn) [Compound 27],,
> 10 µM,4.12 µM,CCCCCC[C@H](O)C12CCC(c3ccc(O)cc3)(CC1)CC2 [Compound 28],,
> 10 µM,> 10 µM,CCCCCC[C@@H](O)C12CCC(c3ccc(O)cc3)(CC1)CC2 [Compound 29],,
,,"C[C@]12CC[C@@H]3c4ccc(O)cc4CC[C@H]3[C@@H]1CC[C@@H]2O [Compound E2, Estradiol, reference compound]",no agonistic or antagonistic activities,HEK293 viability IC50 (μM) (HEK293 cells): Low
,,"N#CC(Cc1ccc(O)cc1)c1ccc(O)cc1 (stereo not drawn) [DPN, Diarylpropionitrile]",no agonistic or antagonistic activities,HEK293 viability IC50 (μM) (HEK293 cells): Low; agonistic or antagonistic activities on AR (Human full-length AR): no agonistic or antagonistic activities
,,"CCCc1c(-c2ccc(O)cc2)nn(-c2ccc(O)cc2)c1-c1ccc(O)cc1 [PPT, Propyl pyrazole triol, reference compound]",,"ERα Efficacy (Human full-length ERα; HEK293, 24 hours, Trial 2): 101; ERβ EC50 (nM) (Human full-length ERβ; [1]): low; ERβ Log(EC50) (Human full-length ERβ; [1]): low"

Compound,EC50 (Human full-length ERα),EC50 (Human full-length ERβ; [2]),agonistic or antagonistic activities on GR (Human full-length GR),also measured
CCCCCC[C@H](O)C1C2CC3CC1CC(c1ccc(O)cc1)(C3)C2 (stereo partly drawn) [Compound 30],> 10 µM,> 10 µM,,

# Source: patent US20250281515A1, “CARBORANE COMPOUNDS, CARBORANE ANALOGS, AND METHODS OF USE THEREOF” (Ohio State Innovation Foundation, priority 2018, published 2025)
